{"source": "patent US20200384001A1", "about": "“COMPOSITION FOR PREVENTION OR TREATMENT OF NEUROINFLAMMATORY DISEASE, CONTAINING PROTEIN TYROSINE PHOSPHATASE” (KYUNGPOOK NATIONAL UNIVERSITY INDUSTRY - ACADEMIC …, priority 2015, published 2020)", "key": {"[1]": {"test_system": "microglia (Iba-1 positive cells)", "assay": "Iba-1 positive activated microglia in brain of LPS-injected mice (brain inflammation model)", "assay_type": "in vivo, mouse", "details": "inhibitor intracerebrally, LPS 5 mg/kg i.p., 48 hours", "procedure": "C57BL/6 mice were injected intracerebrally with vehicle (saline solution containing 0.5% DMSO and 5% propylene glycol) or the PTP inhibitor of Table 2 above (dilution in saline solution containing 5% propylene glycol). LPS (5 mg/kg) was intraperitoneally injected 30 minutes after injection. Mice were sacrificed and the brain was analyzed 48 hours after LPS injection.\nThe mouse model was divided into eight experimental groups; Group 1 treated with saline solution and 0.5% DMSO; Group 2 treated with LPS and 0.5% DMSO; Group 3 treated with LPS and PTP1B inhibitor; Group 4 treated with LPS and TC-PTP inhibitor; Group 5 treated with LPS and SHP2 inhibitor; Group 6 treated with LPS and MEG2 inhibitor; Group 7 treated with LPS and LYP inhibitor; and Group 8 treated with LPS and RPTPP inhibitor. The experimental design above is illustrated in FIG. 4A.\nFIG. 4B illustrates the histochemical results of confirming whether the sacrificed mouse brain is morphologically changed by straining the antibody against Iba-1, a marker of microglia.\nIn addition, the brains were removed and sectioned, and the hippocampus, cortex and thalamus were stained with an antibody against Iba-1. The results of histochemical confirmation are illustrated in FIG. 4C. The results of graphical representation of the number of Iba-1 positive cells per mm^2 are illustrated in FIG. 4D."}, "BV2 microglia [2]": {"test_system": "BV2 microglia", "assay": "LPS-induced NO production in BV2 microglial cell line (Griess reaction)", "assay_type": "cell-based", "details": "for LPS-induced NO production: BV2, Src kinase inhibitor PP2 (5 μM) or PDTC (FIG. 18)", "procedure": "Since the production of NO (nitric oxide) is a strong marker of inflammatory response in microglia, the effect of PTP1B on LPS-induced NO production was investigated through the Griess reaction. The production of NO was measured using the amount of nitrite. Naive microglia or microglia overexpressing PTP1B were treated with LPS (originated from E. coli 055: B5; Sigma). FIG. 6 illustrates the result of treatment with a BV2 microglial cell line at the indicated dose of LPS. FIG. 7 illustrates the results of treating a BV2 microglial cell line with 100 ng LPS at the indicated time. 24 hours after incubation, 5 μl the cell culture media was mixed with Griess reagent with the same volume (0.1% naphthylethylenediamine dihydrochloride and 1% sulfanylamine in 5% phosphoric acid) in a 96-well microtiter plate. Absorbance was read at 540 nm and sodium nitrite was used for standard curve generation.\nIn addition, the level of LPS-induced NO production after BV2 treatment with Src kinase inhibitor PP2 (5 μM) or PDTC (Ammonium pyrrolidinedithiocarbamate, NFκB inhibitor) was identified to determine whether Src is associated with LPS-induced microglia activity. This is illustrated in FIG. 18.\nNext, it was determined whether the PTP1B-mediated proinflammatory response was dependent on Src activity in microglia. […] NO levels were measured in the treated BV2 microglia and the results are illustrated in FIG. 19."}, "BV2 microglia [3]": {"test_system": "BV2 microglia", "assay": "RT-PCR of LPS-induced proinflammatory molecule mRNA in BV2 microglia", "assay_type": "cell-based", "details": "BV2, LPS 100 ng/ml 6 hours, RT-PCR (FIGS. 13, 14)", "excerpt": "The results are illustrated in FIG. 13."}, "PTP1B": {"target": "T1, PTP1B (Homo sapiens, UniProt P18031)", "T1 sequence (P18031 1-435)": "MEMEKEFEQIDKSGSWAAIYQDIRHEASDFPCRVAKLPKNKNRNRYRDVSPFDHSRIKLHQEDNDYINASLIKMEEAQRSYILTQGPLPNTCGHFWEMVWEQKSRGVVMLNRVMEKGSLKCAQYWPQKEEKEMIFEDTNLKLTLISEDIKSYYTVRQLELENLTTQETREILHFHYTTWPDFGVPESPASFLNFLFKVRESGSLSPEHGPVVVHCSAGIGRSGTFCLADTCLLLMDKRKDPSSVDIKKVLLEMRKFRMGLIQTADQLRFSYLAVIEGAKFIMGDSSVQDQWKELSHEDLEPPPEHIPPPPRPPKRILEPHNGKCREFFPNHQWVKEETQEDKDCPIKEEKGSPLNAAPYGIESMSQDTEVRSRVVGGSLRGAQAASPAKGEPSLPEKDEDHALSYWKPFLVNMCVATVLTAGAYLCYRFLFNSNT", "details": "statement without data; inhibitor obtained from Dr. Zhang group; cited from earlier work"}, "brain tissues": {"test_system": "brain tissues", "assay": "Real-time PCR of TNFα and IL1β expression in brain tissue after LPS and iPTP1B injection", "assay_type": "in vivo, mouse", "details": "real-time PCR 6 hours after injection of LPS (FIG. 23)", "procedure": "The expression level of TNFα and IL1β genes, which are proinflammatory factors, was measured by real-time PCR 6 hours after the injection of LPS, and the results are illustrated in FIG. 23."}, "primary microglia": {"test_system": "primary microglia", "assay": "LPS-induced NO production in mouse primary microglia", "assay_type": "cell-based", "details": "5 μM iPTP1B, LPS 50 ng/ml 24 hours (FIG. 10)", "excerpt": "NO levels were confirmed in the stimulated primary microglia."}, "Src": {"test_system": "Src", "assay": "Phosphorylation of Src at Y527 in brain of LPS-injected inflammatory mouse model", "assay_type": "in vivo", "details": "LPS+iPTP1B or iPTP1B injected into the brain, after 24 hours (FIG. 20)", "procedure": "In addition, in vivo experiments were carried out using an inflammatory mouse model injected with LPS to identify the effect of PTP1B on phosphorylation of Src at Y527 in vivo. […] At this time, total Src and beta-actin were used as a loading control group and Lnc2 was used as a marker of neuroinflammation. The results are illustrated in FIG. 20."}, "HAPI cells [4]": {"test_system": "HAPI cells", "assay": "TNFα-induced NO production in HAPI rat microglial cell line", "assay_type": "cell-based", "details": "10 μM iPTP1B 1 hour, TNFα 100 ng/ml 24 hours (FIG. 12)", "excerpt": "NO levels were identified in the stimulated cells."}, "BV2 microglia [5]": {"test_system": "BV2 microglia", "assay": "TNFα protein ELISA in BV2 microglial culture media", "assay_type": "cell-based", "details": "BV2, LPS, 24-hour incubation, ELISA (FIG. 15)", "procedure": "In addition, the level of TNFα protein in the BV2 microglial culture media treated with LPS as described above was confirmed by ELISA. […] After 24-hour incubation, the TNFα levels in the culture media were measured using a rat monoclonal anti-mouse TNFα antibody as the capture antibody and a goat biotinylated polyclonal anti-mouse TNFα antibody as the detection antibody. The measured levels of TNFα protein results are illustrated in FIG. 15."}, "HAPI cells [6]": {"test_system": "HAPI cells", "assay": "LPS-induced NO production in HAPI rat microglial cell line", "assay_type": "cell-based", "details": "10 μM iPTP1B 1 hour, LPS 100 ng/ml 24 hours (FIG. 11)", "quoted_text": "NO levels were confirmed in the stimulated rat microglial cell line, HAPI cells."}}}
{"compound": "CCc1ccc(C(=O)NCCCC[C@H](NC(=O)[C@H](Cc2ccc(C(F)(F)P(=O)(O)O)cc2)NC(=O)[C@H](Cc2ccccc2)NC(=O)CO[C@@H]2C[C@@H](C)CC[C@@H]2C(C)C)C(N)=O)cc1", "note": "[TC-PTP inhibitor]", "values": [{"measurement": "activation of LPS-induced microglia (Iba-1 positive cells) in the cortex", "setting": "[1]", "value": "decrease the activation of LPS-induced microglia"}]}
{"compound": "CC(C)(C)n1nc(-c2ccc(Cl)cc2)c2c(N)ncnc21", "note": "[PP2]", "values": [{"measurement": "dose dependence of inhibition of LPS-induced NO production", "setting": "BV2 microglia [2]; BV2, PP2 pretreatment (FIG. 18)", "value": "dose-dependent"}, {"measurement": "LPS-induced NO production", "setting": "BV2 microglia [2]", "value": "inhibited significantly"}, {"measurement": "NO levels: effect on the anti-inflammatory effect of iPTP1B", "setting": "BV2 microglia [2]; BV2 pretreated with PP2 or iPTP1B 1 hour, LPS 24 hours (FIG. 19)", "value": "eliminated the anti-inflammatory effect of iPTP1B"}]}
{"compound": "N.S=C(S)N1CCCC1", "note": "[PDTC, Ammonium pyrrolidinedithiocarbamate]", "values": [{"measurement": "LPS-induced NO production", "setting": "BV2 microglia [2]", "value": "inhibited significantly"}]}
{"compound": "((4-((S)-3-(((S)-1-amino-3-(2-(4-hydroxy-3-methoxyphenyl)acetamido)-1-oxopropan-2-yl)amino)-5-(3-iodobenzamido)-1-oxopentan-2-yl)amino)-6-hydroxy-3-iodo-1-methyl-2-(3-(2-oxo-2-((4-thiophen-3-yl)phenyl)amino)acetamido)phenyl)-1H-indole-5-carboxlic acid [SHP2 inhibitor]", "values": [{"measurement": "activation of LPS-induced microglia (Iba-1 positive cells) in the hippocampus", "setting": "[1]", "value": "decrease the activation of LPS-induced microglia"}]}
{"compound": "(S)-4-(((S)-1-(12-azanyl)-3-(4-(difluoro(phosphono)methyl)phenyl)-1-oxopropan-2-yl)amino)-3-((S)-3-(4-(difluoro(phosphono)methyl)phenyl)-2-pentadecanamidopropanamido)-4-oxobutanoic acid [iPTP1B]", "values": [{"measurement": "LPS-induced IL1β mRNA expression", "setting": "BV2 microglia [3]; 10 M iPTP1B", "value": "significantly inhibits"}, {"measurement": "LPS-induced TNFα mRNA expression", "setting": "BV2 microglia [3]; 10 M iPTP1B", "value": "significantly inhibits"}, {"measurement": "LPS-induced iNOS mRNA expression", "setting": "BV2 microglia [3]; 10 M iPTP1B", "value": "significantly inhibits"}, {"measurement": "LPS-induced Cox2 mRNA expression", "setting": "BV2 microglia [3]; iPTP1B", "value": "significantly inhibits"}, {"measurement": "level of LPS-induced NO", "setting": "BV2 microglia [2]; BV2, different concentrations of iPTP1B, LPS 100 ng/ml (FIG. 9)", "value": "dose-dependently decreased"}, {"measurement": "NO production, treatment with inhibitor alone (basic level)", "setting": "BV2 microglia [2]; BV2, iPTP1B alone without LPS", "value": "did not inhibit or increase NO production"}, {"measurement": "IC50", "setting": "BV2 microglia [2]; BV2, pretreated 1 hour, LPS 100 ng/ml, Griess method (FIG. 9), read-out: IC50 for level of LPS-induced NO", "value": 10.3, "unit": "µM"}, {"measurement": "specificity for PTP1B", "setting": "PTP1B", "value": "highly specific to PTP1B"}, {"measurement": "expression of IL1β gene in brain", "setting": "brain tissues", "value": "significantly weakened"}, {"measurement": "expression of TNFα gene in brain", "setting": "brain tissues", "value": "significantly weakened"}, {"measurement": "level of LPS-induced NO", "setting": "primary microglia", "value": "significantly decreased"}, {"measurement": "phosphorylation of Src at Y527 in vivo", "setting": "Src", "value": "increased phosphorylation of Src at Y527"}, {"measurement": "TNFα-induced NO level", "setting": "HAPI cells [4]", "value": "significantly decreased"}, {"measurement": "expression level of TNFα protein in the culture media", "setting": "BV2 microglia [5]", "value": "significantly low"}, {"measurement": "activation of LPS-induced microglia (Iba-1 positive cells) in the cortex", "setting": "[1]", "value": "decrease the activation of LPS-induced microglia"}, {"measurement": "activation of LPS-induced microglia (Iba-1 positive cells) in the hippocampus", "setting": "[1]", "value": "decrease the activation of LPS-induced microglia"}, {"measurement": "level of LPS-induced NO", "setting": "HAPI cells [6]", "value": "significantly decreased"}]}
{"compound": "Cn1c(-c2cccc(NC(=O)CNC(=O)c3cc(Br)cc(I)c3)c2)c(I)c2cc(C(=O)O)c(O)cc21", "note": "[RPTPβ inhibitor, 2-(3-(2-(3-bromo-5-iodobenzamido)acetamido)phenyl)-6-hydroxy-3-iodo-1-methyl-1H-indole-5-carboxylic acid]", "values": [{"measurement": "activation of LPS-induced microglia (Iba-1 positive cells) in the cortex", "setting": "[1]", "value": "decrease the activation of LPS-induced microglia"}, {"measurement": "activation of LPS-induced microglia (Iba-1 positive cells) in the hippocampus", "setting": "[1]", "value": "decrease the activation of LPS-induced microglia"}]}
